Test results: patent US20250303006A1, “BIOCOMPATIBLE ANTISEPTIC COMPOSITION CONTAINING 9-HYDROXYCALABAXANTHONE AND/OR RELATED XANTHONES” (UNIVERSITAT DE LES ILLES BALEARS, priority 2022, published 2025)

Tests used:
C. acnes = C. acnes culture and proliferation assay; assay type: cell-based, Cutibacterium acnes; conditions: 0.0002% HCX, 24 h
Protocol: C. acnes 5684 (CECT, Valencia, Spain) was grown on Tryptic soy broth (TSB) (Scharlab), supplemented with 0.5 g/I L-Cysteine hydrochloride (Thermo Fisher Scientific), 1.0 mg/I hemin (Thermo Fisher Scientific) and 5.0 mg/I glucose (Scharlab) under anaerobic conditions (10% H2, 10% CO2 and 80% N2) achieved with an Oxoid Anaerogen™ sachet (Thermo Fisher Scientific) at 37° C. for 48 h. After overnight incubation, 1 mL of C. acnes was incubated with different concentrations of CHX (0.01, 0.005, 0.003, 0.001%) and HCX (0.003, 0.002, 0.001, 0.0002%) for 24 hours at 37° C. under anaerobic conditions achieved with an Oxoid Anaerogen™ sachet. Bacterial suspension without treatment served as negative control (C−). The optical density (OD) was measured at 600 nm at 0 h and 24 h to determine bacterial proliferation (PowerWave Ht). The bacterial growth rate (μ) was calculated during the exponential growth phase following the equation ln ODt−ln OD0=μ×(t−t0) (n=4). The live/Dead ratio of bacteria was determined using the LIVE/DEAD BacLight bacterial viability kit (Invitrogen), following the manufacturer's instructions. The assays were carried out in triplicate.

P. aeruginosa = P. aeruginosa culture and proliferation assay; assay type: cell-based, Pseudomonas aeruginosa; conditions: 0.003% HCX, 3 h
Protocol: P. aeruginosa ATCC 27853 was grown from frozen stocks in LB broth (Scharlab), at 37° C. under aerobic conditions in an orbital shaker (180 rpm). After overnight incubation, 1 mL of bacterial suspensions were incubated with different concentrations of CHX (0.01, 0.005, 0.003, 0.001, 0.0001%) and HCX (0.003, 0.002, 0.001, 0.0002, 0.00002%) for 3 hours at 37° C. under aerobic conditions in an orbital shaker (180 rpm). Bacterial suspension without treatment served as negative control (C−). The optical density (OD) was measured at 600 nm at 0 h and 3 h to determine bacterial proliferation (PowerWave Ht). The bacterial growth rate (μ) was calculated during the exponential growth phase following the equation ln ODt−ln OD0=μ×(t−t0) (n=3).

bacterial plaque biofilm = assay: In vitro bacterial plaque biofilm formation from pooled human saliva; assay type: cell-based; conditions: 0.05% HCX solution, slides immersed 2 min on days 2 and 3; equal to 0.2% chlorhexidine
Protocol: This is an in vitro study using pooled human saliva as a test substrate to compare the ability of 9-hydroxycalabaxanthone (HCX) versus chlorhexidine (CHX) and control to prevent or reduce plaque biofilm buildup.
Human saliva from different donors was collected and pooled. 15 ml of the pooled saliva supplemented with 0.1% sucrose was pipetted into sterile 40 ml containers and then a glass microscope slide was submerged below 2 cm of saliva in each container and incubated at 37° C. for bacterial biofilm formation. Twice a day the slide was immersed in TSB culture medium. On days 2 and 3, the biofilm was treated with different groups: (1) a solution containing 0.05% 9-hydroxycalabaxanthone (HCX) (n=6), (2) a solution containing 0.2% chlorhexidine (CHX) (n=6), and a solution containing water (C−) (n=6), by immersing the slides for 2 min in the test of the assigned product. […] The removed biofilms were subjected to sonication using three 15 s pulses with a power of 7 W. The homogenized bacterial suspension was used to determine the bacterial viability both by quantification of colony-forming units (CFU) per mL and by LIVE/DEAD assay.
For the Bacterial viability assay, an aliquot (0.1 mL) of the homogenized bacterial suspension was serially diluted and plated on TSB agar. The plates were incubated in 5% CO2 at 37° C. for 48 h, and then the number of CFU/mL was determined. […]

For `COc1c(O)cc2oc3cc4c(c(O)c3c(=O)c2c1CC=C(C)C)C=CC(C)(C)O4` [HCX, 9-hydroxycalabaxanthone], the bacteria eliminated (C. acnes) was 96%, the bacteria eliminated (P. aeruginosa) was 32% and the “plaque biofilm bacteria formation (live/dead ratio, CFU/mL)” value (bacterial plaque biofilm) was “reduced plaque biofilm bacteria formation”.
